Measured values as given in patent US12187709B2 (Genentech, Inc., priority 2021, dated 2025).

Key:
Cbl-b = Cbl-b (Homo sapiens (Human), UniProt Q13191); test: Cbl-b LCK Ub TR-FRET assay (Cbl-b Lck HTRF); assay type: biochemical; conditions: for IC50: Cbl-b LCK Ub TR-FRET; for fold-selectivity (Cbl-b over C-cbl) / (fold-selectivity) Cbl-b and C-Cbl Selectivity: ratio C-cbl Lck HTRF IC50 / Cbl-b Lck HTRF IC50
How it was run: (§1)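 Signal is read once the detection mix has stood 20 min at ambient temperature. Curves are anchored by DMSO as maximum and by omission of LCK as minimum.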

c-Cbl = c-Cbl (Homo sapiens (Human), UniProt P22681); test: C-Cbl LCK Ub TR-FRET assay (C-cbl Lck HTRF); assay type: biochemical
How it was run: as §1

[1] = target: Human Cbl-b (residues 40-426) (Homo sapiens (Human), UniProt Q13191); test: Cbl-b SPR assay; assay type: binding; conditions: for Fold of selectivity: C-cbl SPR Kd vs Cbl-b SPR Kd; for Kd: SPR, 20° C.
How it was run: (§2)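 Captured protein (1300-1500 RU for both isoforms) was probed in multi-cycle kinetics with 6 concentrations in 2-fold dilution, 60 s contact, 40 μl/min, dissociation 120-1200 s, double-referenced. Kinetic and affinity parameters came from a 1:1 binding fit. For slow off-rates, kd was set independently by a chaser-based method.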

c-Cbl (residues 47-435) = c-Cbl (residues 47-435) (Homo sapiens (Human), UniProt P22681); test: c-Cbl SPR assay; assay type: binding; conditions: 20° C.
How it was run: as §2

Chain of c-Cbl (residues 47-435) (P22681 47-435): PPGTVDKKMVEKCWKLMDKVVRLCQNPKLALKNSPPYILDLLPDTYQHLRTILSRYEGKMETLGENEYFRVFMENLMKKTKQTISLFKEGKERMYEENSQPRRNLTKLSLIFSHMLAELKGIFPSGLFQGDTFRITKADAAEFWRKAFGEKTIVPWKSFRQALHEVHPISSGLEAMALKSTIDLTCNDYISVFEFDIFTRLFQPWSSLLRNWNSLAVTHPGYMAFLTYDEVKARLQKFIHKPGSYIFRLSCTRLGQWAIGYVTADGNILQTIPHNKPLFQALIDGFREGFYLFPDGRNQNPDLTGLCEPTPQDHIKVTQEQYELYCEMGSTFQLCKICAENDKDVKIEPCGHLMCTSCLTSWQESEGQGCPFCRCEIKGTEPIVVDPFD
Chain of c-Cbl (P22681 47-435): as above
Chain of Cbl-b (Q13191 40-426): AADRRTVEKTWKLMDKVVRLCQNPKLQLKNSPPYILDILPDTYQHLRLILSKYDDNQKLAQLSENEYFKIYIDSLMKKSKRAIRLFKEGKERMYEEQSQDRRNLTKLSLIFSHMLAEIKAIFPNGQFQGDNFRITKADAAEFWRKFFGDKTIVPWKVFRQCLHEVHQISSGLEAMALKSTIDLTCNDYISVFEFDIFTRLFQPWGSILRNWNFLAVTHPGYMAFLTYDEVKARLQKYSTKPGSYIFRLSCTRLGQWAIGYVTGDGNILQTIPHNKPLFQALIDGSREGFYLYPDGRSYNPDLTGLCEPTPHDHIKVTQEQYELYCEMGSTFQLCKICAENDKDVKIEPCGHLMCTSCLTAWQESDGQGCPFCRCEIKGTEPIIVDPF
Chain of Human Cbl-b (residues 40-426) (Q13191 40-426): as above

| Structure (SMILES) | IC50 (Cbl-b) | fold-selectivity (Cbl-b over C-cbl) (Cbl-b) | IC50 (c-Cbl) | Fold of selectivity [1] | Kd [1] | Kd (c-Cbl (residues 47-435)) | IC50 (Cbl-b; Example 121) | (fold-selectivity) Cbl-b and C-Cbl Selectivity (Cbl-b) |
| --- | --- | --- | --- | --- | --- | --- | --- | --- |
| CCOc1cc(N2Cc3c(cc(CNC4(C)CCC4)cc3C(F)(F)F)C2=O)cc([C@]2(c3nncn3C)C[C@H](C)C2)c1 [Compound 189, 2-(3-ethoxy-5-((1r,3r)-3-methyl-1-(4-methyl-4H-1,2,4-triazol-3-yl)cyclobutyl)phenyl)-6-(((1-methylcyclobutyl)amino)methyl)-4-(trifluoromethyl)isoindolin-1-one] | 7.2 nM | 0.56x | 4.1 nM | 3.3× | 0.3 nM | 1 nM |  |  |
| Cn1cnnc1[C@]1(c2cc(OC3CCCC3)cc(N3Cc4c(cc(CNC5(C)CCC5)cc4C(F)(F)F)C3=O)c2)C[C@H](C)C1 [Compound 186, 2-(3-(cyclopentyloxy)-5-((1s,3s)-3-methyl-1-(4-methyl-4H-1,2,4-triazol-3-yl)cyclobutyl)phenyl)-6-(((1-methylcyclobutyl)amino)methyl)-4-(trifluoromethyl)isoindolin-1-one] | 35 nM | 2.9x | 100 nM | 5.2× | 13 nM | 72 nM |  |  |
| CC(=O)[C@H]1C[C@@](c2cccc(N3Cc4c(cc(CNC5(C)CCC5)cc4C(F)(F)F)C3=O)c2)(c2nncn2C)C1 [Compound 346, 2-(3-((1s,3s)-3-acetyl-1-(4-methyl-4H-1,2,4-triazol-3-yl)cyclobutyl)phenyl)-6-(((1-methylcyclobutyl)amino)methyl)-4-(trifluoromethyl)isoindolin-1-one] | 40 nM | 4.6x | 190 nM | 5.4× | 35 nM | 200 nM |  |  |
| Cn1cnnc1[C@@H](c1cccc(N2Cc3c(cc(CNC4(C)CCC4)cc3C(F)(F)F)C2=O)c1)[C@H]1C[C@H](OC(F)(F)F)C1 (single isomer, unassigned) [Compound 395] | 75 nM | 2.1x | 160 nM | 7.1× | 130 nM | 920 nM |  |  |
| C=CCNc1cc(N2Cc3c(cc(CNC4(C)CCC4)cc3C(F)(F)F)C2=O)cc([C@]2(c3nncn3C)C[C@@H](OC)C2)c1 [Compound 240, 2-(3-(allylamino)-5-((1s,3s)-3-methoxy-1-(4-methyl-4H-1,2,4-triazol-3-yl)cyclobutyl)phenyl)-6-(((1-methylcyclobutyl)amino)methyl)-4-(trifluoromethyl)isoindolin-1-one] | 14 nM | 3.7x | 51 nM | 12× | 2.3 nM | 27 nM |  |  |
| CO[C@](c1cccc(N2Cc3c(cc(CNC4(C)CCC4)cc3C(F)(F)F)C2=O)c1)(c1nncn1C)C1CCC1 (single isomer, unassigned) [Compound 119] | 3600 nM | 3.6x | 13000 nM | 3.0× | 780 nM | 2300 nM |  |  |
| Cn1cnnc1[C@@H](c1cccc(N2Cc3c(cc(CNC4(C)CCC4)cc3C(F)(F)F)C2=O)c1)[C@H]1C[C@@H](C)C1 (single isomer, unassigned) [Compound 379] | 6.8 nM | 1.6x | 9.5 nM | 6.7× | 0.9 nM | 6 nM |  |  |
| CCO[C@H]1C[C@@](c2cccc(N3Cc4c(cc(CNC5(C)CCC5)cc4C(F)(F)F)C3=O)c2)(c2nncn2C)C1 [Compound 178, 2-(3-((1s,3s)-3-ethoxy-1-(4-methyl-4H-1,2,4-triazol-3-yl)cyclobutyl)phenyl)-6-(((1-methylcyclobutyl)amino)methyl)-4-(trifluoromethyl)isoindolin-1-one] | 33 nM | 2.5x | 85 nM | 4.6× | 5.8 nM | 30 nM |  |  |
| Cn1cnnc1[C@]1(c2cccc(N3Cc4c(cc(CNC5(C)CCC5)cc4C(F)(F)F)C3=O)c2)C[C@@H](OCC#N)C1 [Compound 281, 2-((1r,3r)-3-(4-methyl-4H-1,2,4-triazol-3-yl)-3-(3-(6-(((1-methylcyclobutyl)amino)methyl)-1-oxo-4-(trifluoromethyl)isoindolin-2-yl)phenyl)cyclobutoxy)acetontrile] | 6.7 nM | 1.3x | 9.5 nM | 6.3× | 1.1 nM | 7 nM |  |  |
| C[C@H](c1cccc(N2Cc3c(cc(CNC4(C)CCC4)cc3C(F)(F)F)C2=O)c1)c1nncn1C (single isomer, unassigned) [Compound 170] | 12 nM | 1.0x | 12 nM | 2.8× | 4.9 nM | 15 nM |  |  |
| C[C@@H](NC1(C)CCC1)c1cc2c(c(C(F)(F)F)c1)CN(c1cccc([C@H](c3nncn3C)C3COC3)c1)C2=O [Compound 444, 2-(3-((R)-(4-methyl-4H-1,2,4-triazol-3-yl)(oxetan-3-yl)methyl)phenyl)-6-((R)-1-((1-methylcyclobutyl)amino)ethyl)-4-(trifluoromethyl)isoindolin-1-one] |  |  | 4.5 nM | 1.8× | 0.4 nM | 0.7 nM | 4.1 nM | 1.1x |
| CO[C@H]1C[C@](c2cc(NC3CCC3)cc(N3Cc4c(cc(CNC5(C)CCC5)cc4C(F)(F)F)C3=O)c2)(c2nncn2C)C1 [Compound 211, 2-(3-(cyclobutylamino)-5-((1r,3r)-3-methoxy-1-(4-methyl-4H-1,2,4-triazol-3-yl)cyclobutyl)phenyl)-6-(((1-methylcyclobutyl)amino)methyl)-4-(trifluoromethyl)isoindolin-1-one] | 15 nM | 4.0x | 60 nM | 14× | 3.5 nM | 49 nM |  |  |
| Cn1cnnc1[C@]1(c2cccc(N3Cc4c(cc(CNC5(C)CCC5)cc4C(F)F)C3=O)c2)C[C@H](F)C1 [Compound 247, 4-(difluoromethyl)-2-(3-((1s,3s)-3-fluoro-1-(4-methyl-4H-1,2,4-triazol-3-yl)cyclobutyl)phenyl)-6-(((1-methylcyclobutyl)amino)methyl)isoindolin-1-one] | 9.8 nM | 1.9x | 18 nM | 5.5× | 2.2 nM | 12 nM |  |  |
| CCNc1cc(N2Cc3c(cc(CNC4(C)CCC4)cc3C(F)(F)F)C2=O)cc([C@]2(c3nncn3C)C[C@H](OC)C2)c1 [Compound 210, 2-(3-(ethylamino)-5-((1r,3r)-3-methoxy-1-(4-methyl-4H-1,2,4-triazol-3-yl)cyclobutyl)phenyl)-6-(((1-methylcyclobutyl)amino)methyl)-4-(trifluoromethyl)isoindolin-1-one] | 9 nM | 1.3x | 12 nM | 4.7× | 1.5 nM | 6.7 nM |  |  |
| Cn1cnnc1[C@H](c1cccc(N2Cc3c(cc(CNC4(C)CCC4)cc3C(F)(F)F)C2=O)c1)C1CC(=O)C1 (single isomer, unassigned) [Compound 115] | 10 nM | 2.3x | 23 nM | 5.2× | 1.8 nM | 8.9 nM |  |  |
| Cn1cnnc1[C@]1(c2cccc(N3Cc4c(cc(CNC5(C)CCC5)cc4C(F)(F)F)C3=O)c2)C[C@@](C)(O)C1 [Compound 27, 2-(3-((1r,3r)-3-hydroxy-3-methyl-1-(4-methyl-4H-1,2,4-triazol-3-yl)cyclobutyl)phenyl)-6-(((1-methylcyclobutyl)amino)methyl)-4-(trifluoromethyl)isoindolin-1-one] | 170 nM | (3.0x) | 510 nM | 7.2× | 60 nM | 430 nM |  |  |
| CO[C@H]1C[C@@](c2cc(NCCC#N)cc(N3Cc4c(cc(CNC5(C)CCC5)cc4C(F)(F)F)C3=O)c2)(c2nncn2C)C1 [Compound 224] | 20 nM | 5.0x | 100 nM | 10× | 9.5 nM | 100 nM |  |  |
| CCCNCc1cc2c(c(C(F)(F)F)c1)CN(c1cccc([C@]3(c4nncn4C)C[C@H](OC)C3)c1)C2=O [Compound 511, 2-(3-((1r,3r)-3-methoxy-1-(4-methyl-4H-1,2,4-triazol-3-yl)cyclobutyl)phenyl)-6-((propylamino)methyl)-4-(trifluoromethyl)isoindolin-1-one] |  |  | 61 nM | 13× | 5 nM | 65 nM | 12 nM | 5.0x |
| COC1CC([C@@H](c2cccc(N3Cc4c(cc(CNC5(C)CCC5)cc4C(F)(F)F)C3=O)c2)c2nncn2C)C1 (single isomer, unassigned) [Compound 133] | 150 nM | 4.9x | 730 nM | 7.7× | 83 nM | 660 nM |  |  |
| Cn1cnnc1C1(c2cccc(N3Cc4c(cc([C@@H](CO)NC5(C)CCC5)cc4C(F)(F)F)C3=O)c2)CCC1 (single isomer, unassigned) [Compound 149] | 4.9 nM | 0.82x | 4.1 nM | 4.7× | 0.3 nM | 1.4 nM |  |  |
